Measurements from US5556847A, “Methods of effecting memory enhancement mediated by steroid sulfatase inhibitors” (Duquesne University of the Holy Ghost, priority 1994, dated 1996).
Structures can show the parent of a compound that is named as a salt.

Key:
[1] = system: scopolamine-induced amnesia; experiment: passive avoidance paradigm, reversal of scopolamine-induced amnesia (crossover latency); assay type: in vivo, rats
Experimental: Male rats weighing between 80 and 100 grams were purchased from Hilltop Lab Animals Inc. (Scottdale, Pa.) and housed in hanging wire mesh cages in groups of three with water and rat chow available ad libitum. The room in which the animals were housed was controlled for both temperature and humidity, there was a standard 12 hour, light/dark cycle. To assess memory, the Gemini Avoidance System (San Diego Instruments) was utilized in a standard passive avoidance paradigm. Briefly, the avoidance apparatus consisted of a box (53×53×32 cm) with two compartments connected by an opening with a sliding door. The room in which the rat was placed was brightly lit, while the other room was dark. Initially, the animals were allowed to explore the apparatus and were then removed. During the memory acquisition trial, animals were placed in the light compartment. When an animal entered the dark compartment, the sliding door closed and a mild foot shock (1mA; 1 sec.) was delivered. The rat was then removed from the apparatus and returned to its cage. Twenty-four hours later the rat was again placed in the light side of the apparatus and the time latency to crossing to the dark room recorded. […] The acquisition of memory for the foot shock was assessed as an increased latency period before entering the dark room on the second day. Significant differences in crossover latency were determined by statistical analysis utilizing one-way analysis of a variance with a Dunnett's test post hoc. Significant differences between groups were interpreted as differences in memory acquisition resulting from the various treatments.
To determine the effect of DHEAS on memory, one hour before the acquisition trial […] of ten animals were injected intraperitoneally (IP) with one of the following several doses of DHEAS (5, 10, 20, 30, 50, 70 mg/Kg/ml dissolved saline) or saline. All animals in a given group were administered the same dosage. […] Twenty-four hours later the rats were again placed in the apparatus and the time delay before the animals entered the dark compartment was recorded.
Twenty-four hours later, crossover latency (the time delay before the rats crossed to the dark compartment) for the groups was determined.
(§1) In order to determine whether EMATE alone could enhance memory, four groups of rats (10 animals per group), were injected with EMATE (10 mg/Kg; IP), either four hours before the acquisition trial, or dally for 3, 10 or 15 days before the acquisition trial. Twenty-four hours following the acquisition trial crossover latency was determined. The dally dosage of EMATE was 10 mg/kg which inhibited the sulfatase enzyme for about three to four days.

steroid sulfatase = experiment: inhibition of steroid sulfatase after dosing; assay type: in vivo
Experimental: as §1
Sulfatase inhibitor EMATE can effect the memory enhancement of peripherally administered DHEAS, a neurosteroid, by inhibiting the metabolism of DHEAS to DHEA. […] A single dose (10 mg/kg) can inhibit greater than 98% of sulfatase after 24 hours. After 10 days of treatment the sulfatase activity in the whole body (including liver, adrenal gland, ovary, uterus and brain) is inhibited. The administration of EMATE alone can alter the equilibrium between the endogenous sulfated and unsulfated forms of neurosteroids in such a way as to enhance memory.

| Compound | crossover latency (maximum effect) ([1]; DHEAS 20 mg/Kg IP one hour before acquisition trial, scopolamine 1 mg/Kg IP, latency 24 hours later) [s] | reversal of scopolamine-induced amnesia ([1]; DHEAS 5-70 mg/Kg IP one hour before acquisition trial, scopolamine 1 mg/Kg IP 30 minutes before, bell shaped dose response curve) | sulfatase activity in the whole body (including liver, adrenal gland, ovary, uterus and brain) (steroid sulfatase; after 10 days of treatment) | duration of inhibition of the sulfatase enzyme (steroid sulfatase; dosage 10 mg/kg) | kind of steroid sulfatase inhibition (steroid sulfatase; in vivo) | inhibition of sulfatase (steroid sulfatase; single dose 10 mg/kg, after 24 hours) | reversal of scopolamine-induced amnesia ([1]; EMATE alone 10 mg/Kg IP daily for 10 and 15 days before acquisition trial) | crossover latency ([1]; EMATE alone 10 mg/Kg IP daily for 10 days before acquisition trial) [s] | crossover latency ([1]; EMATE alone 10 mg/Kg IP daily for 15 days before acquisition trial) [s] | effect on crossover latency ([1]; EMATE alone, single dose 10 mg/Kg IP four hours before acquisition trial) |
| --- | --- | --- | --- | --- | --- | --- | --- | --- | --- | --- |
| C[C@]12CC[C@H](OS(=O)(=O)O)CC1=CC[C@@H]1[C@@H]2CC[C@]2(C)C(=O)CC[C@@H]12 [DHEAS, dehydroepiandrosterone sulfate, reference compound] | 299.4 ± 83.5 | significant (p≤0.05), reversal of scopolamine-induced amnesia |  |  |  |  |  |  |  |  |
| C[C@]12CC[C@@H]3c4ccc(OS(N)(=O)=O)cc4CC[C@H]3[C@@H]1CCC2=O [EMATE, estrone - 3-sulfamate] |  |  | inhibited | about three to four | potent irreversible inhibitor | greater than 98% | significant (p≤0.05) reversal of scopolamine-induced amnesia | 263.1 ± 69.7 | 297.0 ± 88.7 | failed to increase crossover latency |
